Reference: patent US10464890B2, “PGAM1 inhibitors and methods related thereto” (Emory University, priority 2011, dated 2019)
“Also recorded” adds a separate entry of the source.

How the values were obtained:
[1] = target: PGAM1 (Homo sapiens, UniProt P18669); assay: Thermal melt shift assay, PGAM1; format: binding; details: increasing concentrations, […] to 80 μM
Experimental: In brief, thermal shift assay of compound-protein interaction was performed in 384-well PCR plates with various compound concentrations and 200 μg/ml protein in a buffer solution (20 mM Tris-HCl, 100 mM NaCl, pH 7.4). SYPRO orange was used as a dye to monitor the fluorescence change at 610 nm. Small molecules were dissolved in DMSO and added to protein solution. Final DMSO concentration of solution is 1%. Dissociation constants (Kds) for protein-ligand interaction were calculated using the method as described.
The fluorescence intensity data were fitted to Eq. (1) to obtain ΔHu, ΔCpu, and Tm by nonlinear regression using the program Prism:
The thermal unfolding parameters for 6PGD and PGAM1 alone were determined from 4 control wells, each containing 0.2 mg/mL protein.

[2] = target: T1, PGAM1 in leukemia KG1a cells (Homo sapiens, UniProt P18669); assay: PGAM1 inhibition in leukemia KG1a cells; format: cell-based; details: leukemia KG1a cells (2h); compared to alizarin, alizarin Red S, PGMI-001A
T1 construct: endogenous in cells; host or cells: KG1a leukemia cells; H1299 lung cancer cells
T1 sequence (P18669 whole entry): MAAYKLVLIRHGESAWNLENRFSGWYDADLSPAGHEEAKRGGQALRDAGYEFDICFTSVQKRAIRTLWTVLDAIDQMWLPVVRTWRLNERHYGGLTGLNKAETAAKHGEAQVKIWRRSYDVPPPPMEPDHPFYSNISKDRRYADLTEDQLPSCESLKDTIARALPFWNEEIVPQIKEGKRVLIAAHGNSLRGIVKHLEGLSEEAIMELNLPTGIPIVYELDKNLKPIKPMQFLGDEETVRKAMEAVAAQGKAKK

[3] = system: H1299 cells; assay: Intracellular ATP assay; format: cell-based, human
Experimental: Cellular lactate production was measured under normoxia with a fluorescence-based lactate assay kit (MBL). Phenol red-free RPMI medium without FBS was added to a 6 well-plate of subconfluent cells, and was incubated for 1 h at 37° C. After incubation, 1 ml of media from each well was assessed using the lactate assay kit. Cell numbers were counted by a microscope (×40). Oxygen consumption rates were measured with a Clark type electrode equipped with 782 oxygen meter (Strathkelvin Instruments). 1×10^7 cells were resuspended in RPMI 1640 medium with 10% FBS and placed into a water-jacked chamber RC300 (Strathkelvin Instruments) and recording was started immediately. Intracellular ATP concentration was measured by an ATP bioluminescent somatic cell assay kit (Sigma). 1×10^6 cells were trypsinized and resuspended in ultrapure water. Luminescence was measured with spectrofluorometer (SPECTRA Max Gemini; […]) immediately after the addition of ATP enzyme mix to cell suspension.

[4] = system: H1299 cells; assay: Cell proliferation assay, H1299; format: cell-based, human
Experimental: (§1) For leukemia cell proliferation assay, 10×10^4 cells were seeded in non-tissue culture coated 6-well plate and incubated at 37° C. for indicated times. Cell numbers were counted by trypan blue exclusion under a microscope (×40) at indicated times and the percentage of cell proliferation was determined by comparing PGAM1 knockdown cells to pLKO.1 vector expressing cells. […] Cell viability was determined by counting drug-treated cells compared to DMSO-treated control cells with trypan blue exclusion under a microscope (×40) and by using CellTiter96Aqueous One solution proliferation kit (Promega). For adherent cell proliferation assay such as H1299 and MDA-MB231 cells, 5×10^4 cells were seeded in 6-well plate 24 h before the assay starts and were cultured at 37° C. 24 h after seeding, cells were treated with 5 μM Methyl-2PG and incubated at 37° C. for indicated times. Cell proliferation was determined by the increase in cell number indicated times after the treatment starts compared to that at the treatment starts for each cell line (T=0). Cell numbers were counted by trypan blue exclusion under a microscope (×40). For adherent cell viability assay with trypan blue exclusion, 5×10^4 cells were seeded in 6-well plate 24 h before the assay starts and were cultured at 37° C. […] Cell viability was determined by counting drug-treated cells compared to DMSO-treated control cells with trypan blue exclusion under a microscope (×40). For MTT cell viability assay of adherent cells, 5×10^3 cells were seeded in 96-well plate 24 h before the assay starts and were cultured at 37° C. […] Cell viability was determined by using CellTiter96Aqueous One solution proliferation kit (Promega).

[5] = system: diverse human cancer and leukemia cells; assay: Cell proliferation of diverse cancer and leukemia cells; format: cell-based; details: diverse human cancer and leukemia cells incl. H1299, KG1a, 212LN; 72h
Experimental: as §1, with “(×40).” for “(×40). For adherent cell viability assay with trypan blue exclusion, 5×10^4 cells were seeded in 6-well plate 24 h before the assay starts and were cultured at 37° C.”, “(×40).” for “(×40). For MTT cell viability assay of adherent cells, 5×10^3 cells were seeded in 96-well plate 24 h before the assay starts and were cultured at 37° C.”

[6] = system: human dermal fibroblasts (HDF), human foreskin fibroblasts (HFF), HaCaT keratinocyte cells, melanocyte PIG1 cells; assay: Cell proliferation of normal human cells; format: cell-based
Experimental: as §1, with “(×40).” for “(×40). For adherent cell viability assay with trypan blue exclusion, 5×10^4 cells were seeded in 6-well plate 24 h before the assay starts and were cultured at 37° C.”, “(×40).” for “(×40). For MTT cell viability assay of adherent cells, 5×10^3 cells were seeded in 96-well plate 24 h before the assay starts and were cultured at 37° C.”

[7] = system: H1299 cells xenograft; assay: H1299 xenograft in nude mice; format: in vivo
[8] = Toxicity studies in nude mice; format: in vivo
Experimental: Peripheral blood samples were collected and applied for analysis of hematological properties. The vital organs were collected for histo-pathological analysis. […] Images were analyzed and captured using ImageScope software (Aperio Technologies Inc.) without any additional or subsequent image processing (high power images are 20×; low power images are either 4.0×, 4.2×, or 4.4×). Scale bars are indicated.
An in vivo drug treatment experiment was performed. […] Xenograft experiments were performed by injecting H1299 cells to nude mice.

[9] = system: peripheral blood mononucleocytes and bone marrow CD34+ cells from healthy donors; assay: Cells from healthy human donors; format: cell-based
Description: Approval of use of human specimens was given by the Institutional Review Board of Emory University School of Medicine. All clinical samples were obtained with informed consent with approval by the Emory University Institutional Review Board. Clinical information for the patients was obtained from the pathological files at Emory University Hospital under the guidelines and with approval from the Institutional Review Board of Emory University School of Medicine and according to the Health Insurance Portability and Accountability Act. Only samples from patients that were not previously treated with chemotherapy or radiation therapy were used. Mononuclear cells (MNCs) were isolated from peripheral blood and bone marrow samples from human leukemia patients or peripheral blood samples from healthy donors using lymphocyte separation medium (Cellgro).
Only samples from patients that were not previously treated with chemotherapy or radiation therapy were used. Mononuclear cells (MNCs) were isolated from peripheral blood and bone marrow samples from human leukemia patients or peripheral blood samples from healthy donors using lymphocyte separation medium (Cellgro).

[10] = 100 mg/kg/day i.p. for 21 days from 6 days post-injection, vs vehicle

Sequence of PGAM1 (P18669 whole entry): as above

Compound	PGAM1 melting temperature (Tm) [1]	potency of PGAM1 inhibition in cells [2]	intracellular ATP levels ([3]; H1299 cells treated with PGMI-004A)	cell proliferation ([4]; H1299 cells)	cell proliferation [5]	cell proliferation / non-specific toxicity in normal cells [6]	tumor growth [7, 10]	tumor size [7, 10]	PGAM1 enzyme activity in resected tumors ([7]; xenograft nude mice treated with PGMI-004A)	body weight, complete blood counts (CBC) or hematopoietic properties ([8]; 100 mg/kg/day for 7 days)	histopathological analyses (kidney, lung, liver, spleen) ([8]; 100 mg/kg/day intraperitoneally for 7 days, vs vehicle)	tolerability ([8]; 100 mg/kg/day intraperitoneally, chronic injection for 4 weeks)	cell viability of CD34+ cells isolated from bone marrow samples ([9]; four healthy donors)	cell viability of mononucleocytes in peripheral blood samples ([9]; two healthy human donors, 120 h)	intracellular ATP levels ([3]; H1299 cells with stable knockdown of PGAM1, methyl-2-PG)	cell proliferation ([4]; H1299 PGAM1 knockdown cells, methyl-2-PG)
O=C1c2ccccc2C(=O)c2c1cc(S(=O)(=O)Nc1ccc(C(F)(F)F)cc1)c(O)c2O [PGMI-004A, N-(4-trifluoromethyl)-penyl-3,4-dihydroxy-9,10-dioxo-2-anthracenesulfonamide]	raises PGAM1 melting temperature (Tm) in a dose-dependent manner	more potent activity; also recorded: enhanced potency to inhibit PGAM1	no significant effect on intracellular ATP levels	reduced	decreased cell proliferation	does not affect cell proliferation; also recorded: minimal non-specific toxicity	significantly decreased	significantly decreased	effectively inhibits PGAM1 enzyme activity	did not result in significant alteration	did not reveal significant differences; also recorded: no notable differences	well-tolerated	did not affect cell viability	no toxicity; also recorded: did not affect cell viability		
COC(=O)[C@@H](CO)OP(=O)(O)O [methyl-2-PG, methyl ester of D(+)-2-phosphoglyceric acid, reference compound]															no significant effect on intracellular ATP levels	partially restores the reduced cell proliferation
